Experiment [1] deals with Heliothis virescens. Description: Ovicidal effect on Heliothis virescens. It counts as in vivo. To be noted: 400 ppm in acetone/water, eggs on filter paper immersed, after 6 days. The method, then: Eggs of Heliothis virescens deposited on filter paper are immersed briefly in a test solution comprising 400 ppm of the active ingredient to be tested in acetone/water. After the test solution has dried, the eggs are incubated in Petri dishes. After 6 days, the percentage hatching rate of the eggs is compared with that for untreated controls (% reduction in hatching rate).

Another experiment concerns Plutella xylostella. Description: Effect against Plutella xylostella caterpillars. It counts as in vivo. To be noted: 400 ppm spray on cabbage plants, third-instar caterpillars, three days. As for the experimental part: Young cabbage plants are sprayed with an aqueous emulsion spray mixture containing 400 ppm of active ingredient. After the spray coating has dried on, the cabbage plants are colonised with 10 third-instar caterpillars of Plutella xylostella and placed in a plastic container. Three days later they are evaluated. The percentage reduction of the population and percentage reduction in feeding damage (% response) is determined by comparing the number of dead larvae and the extent of feeding damage on the treated plants with those on the untreated plants.

In the next experiment the test system is Boophilus microplus. Put plainly: In vitro effect on Boophilus microplus. Conditions: 100 to 0.32 ppm; BIARRA and ULAM strain identical. The method, then:
Four test series each of 10 engorged female adults of Boophilus microplus are stuck to a plastic plate and covered for 1 hour with a wad of cottonwool soaked with an aqueous suspension or emulsion of the test substance. The test is carried out with concentrations of 100, 32, 10, 3.2, 1.0 and 0.32 ppm. The wad of cottonwool is then removed, and the ticks are incubated for 28 days for the eggs to be laid. The effect on Boophilus microplus is assessed according to the following 5 criteria:
1. Number of dead females (immobile with black discoloration) before ovipositon;
2. Number of ticks surviving for several days, but no eggs laid;
3. Number of cases in which eggs are laid, but nothing is hatched;
This test is carried out with both the BIARRA and the ULAM strain, and the results in both cases are identical.

A further experiment deals with Panonychus ulmi. Put plainly: Effect against Panonychus ulmi (resistant to organophosphates und carbaryl). The format is in vivo. To be noted: 400 ppm spray on apple seedlings, after 14 days. The method, then: Apple seedlings are colonised with adult females of Panonychus ulmi. After seven days, the infected plants are sprayed with an aqueous emulsion spray mixture containing 400 ppm of the test compound until they are dripping wet, and cultivated in the greenhouse. After 14 days, they are evaluated. The percentage reduction of the population (% response) is determined by comparing the number of dead spider mites on the treated plants with those on the untreated plants.

For a further experiment, the system named is Diabrotica balteata. Put plainly: Effect on Diabrotica balteata larvae. The format is in vivo. Conditions: 400 ppm spray on corn seedlings, second instar larvae, six days. As for the experimental part:
Corn seedlings are sprayed with an aqueous emulsion spray mixture containing 400 ppm of active ingredient. After drying of the spray deposit, the corn seedlings are colonised with 10 second instar larvae of Diabrotica balteata and placed in a plastic container. Six days later they are evaluated. The percentage reduction of the population (% response) is determined by comparing the number of dead larvae on the treated plants with those on the untreated plants.

The next experiment concerns Bemisia tabaci. Description: Effect against Bemisia tabaci. It counts as in vivo. To be noted: 400 ppm spray on dwarf bean plants with nymphs, after a further 14 days. From the text: Dwarf bean plants are placed in gauze cages and colonised with adults of Bemisia tabaci. Following oviposition, all adults are removed. Ten days later, the plants and the nymphs thereon are sprayed with an aqueous emulsion spray mixture containing 400 ppm of the active ingredient. After a further 14 days, the percentage hatching rate of the eggs is compared with that of untreated controls.

In another experiment the test system is Aphis craccivora. Description: Effect against Aphis craccivora. It counts as in vivo. Conditions: 400 ppm spray on pea seedlings, 20° C., 3 and 6 days. The method, then: Pea seedlings are infected with Aphis craccivora, subsequently sprayed with a spray mixture containing 400 ppm of active ingredient, and then incubated at 20° C. 3 and 6 days later, they are evaluated. The percentage reduction of the population (% response) is determined by comparing the number of dead aphids on the treated plants with those on the untreated plants.

The next experiment concerns Tetranychus urticae. Put plainly: Ovicidal effect on Tetranychus urticae. Conditions: 400 ppm spray on bean plants colonised with eggs, 6 days at 25° C. The format is in vivo. As for the experimental part: Young bean plants are colonised with females of Tetranychus urticae, which are removed again after 24 hours. The plants colonised with eggs are sprayed with an aqueous emulsion spray mixture containing 400 ppm of active ingredient. The plants are incubated for 6 days at 25° C. and then evaluated. The percentage reduction of the population (% response) is determined by comparing the total number of dead eggs, larvae, and adults on the treated plants with those on the untreated plants.

A further experiment concerns Dermanyssus gallinae. Put plainly: Comparative in vitro effect on Dermanyssus gallinae. The method, then:
15 fed adult female mites of the genus Dermanyssus gallinae fixed on a plastic adhesive film are brought into contact with 50 μl of an aqueous suspension or emulsion of the test substance. The test is carried out with concentrations of 32, 10, 3.2, 1.0, 0.32 to 0.1 ppm. After drying, the film is stuck onto a glass disc. This creates a kind of air bubble around each mite, the lower surface of which is formed by the glass disc and the upper surface by a bulging of the adhesive film. This bubble contains sufficient air for the mite to avoid suffocating. After 5 days, the effect of the test substance is evaluated with the aid of a stereo-microscope by assessing the effect on mortality, egg deposition, egg quality, hatching rate, pupation rate, and development of protonymphs according to the following 4 criteria:
1. if 9 to 10 mites are dead, this indicates a lethal effect (M);
3. if 2 or more mites survive and produce eggs, but no larvae hatch from these eggs and no protonymphs develop, this indicates a development-inhibiting effect (H);
4. if 2 or more mites survive and lay the usual number of normal eggs, from which larvae hatch and develop into protonymphs, this indicates no activity.

Another experiment has as its system Crocidolomia binotalis. Put plainly: Effect against Crocidolomia binotalis. It counts as in vivo. To be noted: 400 ppm spray on cabbage plants, third-instar caterpillars, three days. As for the experimental part: Young cabbage plants are sprayed with an aqueous emulsion spray mixture containing 400 ppm of active ingredient. After the spray coating has dried on, the cabbage plants are colonised with 10 third-instar caterpillars of Crocidolomia binotalis and placed in a plastic container. Three days later they are evaluated. The percentage reduction of the population and of the feeding damage (% response) is determined by comparing the total number of dead caterpillars and the feeding damage on the treated plants with those on the untreated plants.

Experiment [2] deals with Heliothis virescens. Description: Effect on Heliothis virescens caterpillars. It counts as in vivo. Conditions: 400 ppm spray on soya plants, first-instar larvae, six days. The method, then:
Young soya plants are sprayed with an aqueous emulsion spray mixture containing 400 ppm of active ingredient. After drying of the spray deposit, the soya plants are colonised with 10 first-instar larvae of Heliothis virescens and placed in a plastic container. Six days later they are evaluated. The percentage reduction of the population and percentage reduction in feeding damage (% response) is determined by comparing the number of dead larvae and the extent of feeding damage on the treated plants with those on the untreated plants.

As for `Fc1cccc(F)c1C1=NC(c2ccc(-c3ccc(C(F)(F)F)cc3)cc2)CO1` (single isomer, unassigned) [1.1, 2-(2,6-difluoro-phenyl)-4-(4′-trifluoromethylbiphenyl-4-yl)-4,5-dihydro-oxazole], the “% reduction in hatching rate (response)” value in the experiment on Heliothis virescens [1] is “more than 80%”. In addition, the “percentage reduction of the population and percentage reduction in feeding damage (% response)” value in the experiment on Plutella xylostella and in the experiment on Heliothis virescens [2] was “more than 80%” throughout. Also, the “activity on Boophilus microplus (in words)” value with Boophilus microplus was “most active test substance”. Moreover, the “percentage reduction of the population (% response)” value in the experiment with Panonychus ulmi, with Diabrotica balteata, in the experiment on Aphis craccivora and in the experiment on Tetranychus urticae was “more than 80%” each time. Also, the “response (percentage hatching rate of the eggs vs untreated controls)” value with Bemisia tabaci is recorded as “more than 80%”. The “concentration that completely inhibits the development of protonymphs” value in the experiment on Dermanyssus gallinae (after 5 days) was not above 0.0064 ppm. In the experiment on Dermanyssus gallinae (at the EC100 of the same table line, listed as Enantiomer A), this molecule registered a Type of activity of 1. The “EC100 (minimum dosage to reach 100% mortality)” value with Dermanyssus gallinae (fed adult female mites, evaluated after 5 days, listed as Enantiomer A) is 0.0064 ppm. Besides, in the experiment on Dermanyssus gallinae (ratio of EC100), the “activity relative to enantiomer B” value is 3000-5000 times. Further, the “activity relative to the racemate” value in the experiment on Dermanyssus gallinae (ratio of EC100) is “more than 30 times”. For the same molecule, in the experiment on Crocidolomia binotalis, the “percentage reduction of the population and of the feeding damage (% response)” value is “more than 80%”.

The values above are taken from patent publication US20020137781A1, “Preparation and use of enantiomer-pure 2,4-disubstituted oxazolines” (priority 1999, published 2002).
